According to the supplement of paper PMC9386025:

Legend:
Experiment in all cases: drug sensitivity score (DSS) (DSS (dimensionless)); higher = more sensitive (stronger drug response)
JHOS2 = test system: JHOS2
Procedure, shortened: (§1)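 Cells, either patient-derived cultures or ovarian cancer cell lines given 100 ng/ml doxycycline for no less than three days to induce shRNA, went into 384-well plates at 1 000 – 1 500 per well over drugs pre-plated in five concentrations across a 10,000-fold range. The plates were held for three days at 37 °C with 5.0 % CO2. Cell viability was then taken from CellTiter-Glo luminescence on a PHERAstar FS. For each drug, a drug sensitivity score from its dose-response curve was obtained by a method described earlier.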

FIMM-PDC4 = patient-derived ovarian cancer cells; details: genetic perturbation: none (patient-derived cell culture)
Procedure, shortened: as §1

OVSAHO = test system: OVSAHO
Procedure, shortened: as §1

FIMM-PDC5 = patient-derived ovarian cancer cells; details: genetic perturbation: none (patient-derived cell culture)
Procedure, shortened: as §1

FIMM-PDC1 = patient-derived ovarian cancer cells; details: genetic perturbation: none (patient-derived cell culture)
Procedure, shortened: as §1

FIMM-PDC3 = patient-derived ovarian cancer cells; details: genetic perturbation: none (patient-derived cell culture)
Procedure, shortened: as §1

Kuramochi = test system: Kuramochi
Procedure, shortened: as §1

FIMM-PDC7 = patient-derived ovarian cancer cells; details: genetic perturbation: none (patient-derived cell culture)
Procedure, shortened: as §1

FIMM-PDC6 = patient-derived ovarian cancer cells; details: genetic perturbation: none (patient-derived cell culture)
Procedure, shortened: as §1

[1] = genetic perturbation: DOX-induced PTK7 shRNA knockdown
[2] = genetic perturbation: DOX-induced control shRNA

SMILES: CC[C@H](CC#N)OC(=O)N[C@@H](C)c1cccc(NC(=O)Nc2ccc(-c3cnco3)c(OC)c2)c1 [AVN944]
- drug sensitivity score (JHOS2; [1]): 5.8
- drug sensitivity score (JHOS2; [2]): 9.6
- drug sensitivity score (FIMM-PDC4): 7.4
- drug sensitivity score (OVSAHO; [1]): 11.7
- drug sensitivity score (OVSAHO; [2]): 9.7
- drug sensitivity score (FIMM-PDC5): 18.1
- drug sensitivity score (FIMM-PDC1): 7.65
- drug sensitivity score (FIMM-PDC3): 12
- drug sensitivity score (Kuramochi; [1]): 9.7
- drug sensitivity score (Kuramochi; [2]): 8.9
- drug sensitivity score (FIMM-PDC7): 10
- drug sensitivity score (FIMM-PDC6): 6.6

SMILES: Cc1[nH]nc(C(F)(F)F)c1Cc1sc2c(c1C(=O)N1C[C@](C)(O)CO1)c(=O)n(C)c(=O)n2C(C)C [AZD3965]
- drug sensitivity score (JHOS2; [1]): < 0
- drug sensitivity score (JHOS2; [2]): < 0
- drug sensitivity score (FIMM-PDC4): < 0
- drug sensitivity score (OVSAHO; [1]): 12.1
- drug sensitivity score (OVSAHO; [2]): < 0
- drug sensitivity score (FIMM-PDC5): < 0
- drug sensitivity score (FIMM-PDC1): 2.7
- drug sensitivity score (FIMM-PDC3): < 0
- drug sensitivity score (Kuramochi; [1]): 0.7
- drug sensitivity score (Kuramochi; [2]): 3.4
- drug sensitivity score (FIMM-PDC7): < 0
- drug sensitivity score (FIMM-PDC6): < 0

SMILES: NC(=O)Nc1cc(-c2cccc(F)c2)sc1C(=O)N[C@H]1CCCNC1 [AZD7762]
- drug sensitivity score (JHOS2; [1]): 7.6
- drug sensitivity score (JHOS2; [2]): 4.6
- drug sensitivity score (FIMM-PDC4): 8.1
- drug sensitivity score (OVSAHO; [1]): 6.4
- drug sensitivity score (OVSAHO; [2]): 3.1
- drug sensitivity score (FIMM-PDC5): 7
- drug sensitivity score (FIMM-PDC1): 7.75
- drug sensitivity score (FIMM-PDC3): 9.1
- drug sensitivity score (Kuramochi; [1]): 6
- drug sensitivity score (Kuramochi; [2]): 2.9
- drug sensitivity score (FIMM-PDC7): 5.8
- drug sensitivity score (FIMM-PDC6): 6.4

SMILES: COc1ccc(-c2ccc3c(N4CCOC[C@@H]4C)nc(N4CCOC[C@@H]4C)nc3n2)cc1CO [AZD8055]
- drug sensitivity score (JHOS2; [1]): 11.8
- drug sensitivity score (JHOS2; [2]): 17
- drug sensitivity score (FIMM-PDC4): 21.2
- drug sensitivity score (OVSAHO; [1]): 20.7
- drug sensitivity score (OVSAHO; [2]): 19
- drug sensitivity score (FIMM-PDC5): 29.2
- drug sensitivity score (FIMM-PDC1): 13.9
- drug sensitivity score (FIMM-PDC3): 12.9
- drug sensitivity score (Kuramochi; [1]): 15.9
- drug sensitivity score (Kuramochi; [2]): 16.8
- drug sensitivity score (FIMM-PDC7): 25.7
- drug sensitivity score (FIMM-PDC6): 21.8

SMILES: Cc1ncc(-c2ccnc(Nc3ccc(S(C)(=O)=O)cc3)n2)n1C(C)C [AZD-5438]
- drug sensitivity score (JHOS2; [1]): 14.4
- drug sensitivity score (JHOS2; [2]): 8.3
- drug sensitivity score (FIMM-PDC4): 9.5
- drug sensitivity score (OVSAHO; [1]): 8.2
- drug sensitivity score (OVSAHO; [2]): 7
- drug sensitivity score (FIMM-PDC5): 12.8
- drug sensitivity score (FIMM-PDC1): 7.9
- drug sensitivity score (FIMM-PDC3): 7.3
- drug sensitivity score (Kuramochi; [1]): 7.55
- drug sensitivity score (Kuramochi; [2]): 7.8
- drug sensitivity score (FIMM-PDC7): 7.6
- drug sensitivity score (FIMM-PDC6): 9.3

SMILES: CN(C)Cc1c(C(=O)NCCOc2ccc(C(=O)NO)cc2)oc2ccccc12 [Abexinostat]
- drug sensitivity score (JHOS2; [1]): 14.4
- drug sensitivity score (JHOS2; [2]): 13.3
- drug sensitivity score (FIMM-PDC4): 8.7
- drug sensitivity score (OVSAHO; [1]): 14.6
- drug sensitivity score (OVSAHO; [2]): 11.9
- drug sensitivity score (FIMM-PDC5): 16.2
- drug sensitivity score (FIMM-PDC1): 12.7
- drug sensitivity score (FIMM-PDC3): 13.3
- drug sensitivity score (Kuramochi; [1]): 18.5
- drug sensitivity score (Kuramochi; [2]): 8.6
- drug sensitivity score (FIMM-PDC7): 11.7
- drug sensitivity score (FIMM-PDC6): 14.3

SMILES: CN(C)C/C=C/C(=O)Nc1cc2c(Nc3ccc(F)c(Cl)c3)ncnc2cc1O[C@H]1CCOC1 [Afatinib]
- drug sensitivity score (JHOS2; [1]): < 0
- drug sensitivity score (JHOS2; [2]): 1.8
- drug sensitivity score (FIMM-PDC4): 15.9
- drug sensitivity score (OVSAHO; [1]): 1.9
- drug sensitivity score (OVSAHO; [2]): 1.9
- drug sensitivity score (FIMM-PDC5): 21.9
- drug sensitivity score (FIMM-PDC1): 4.1
- drug sensitivity score (FIMM-PDC3): 11
- drug sensitivity score (Kuramochi; [1]): 1.7
- drug sensitivity score (Kuramochi; [2]): 1.5
- drug sensitivity score (FIMM-PDC7): 13.6
- drug sensitivity score (FIMM-PDC6): 15.8

SMILES: COc1cccc2c1C(=O)c1c(O)c3c(c(O)c1C2=O)C[C@@](O)(/C(CO)=N/NC(=O)CCCCCN1C(=O)C=CC1=O)C[C@@H]3O[C@H]1C[C@H](N)[C@H](O)[C@H](C)O1 [Aldoxorubicin]
- drug sensitivity score (JHOS2; [1]): 7.9
- drug sensitivity score (JHOS2; [2]): 7.4
- drug sensitivity score (FIMM-PDC4): 8.5
- drug sensitivity score (OVSAHO; [1]): 7.9
- drug sensitivity score (OVSAHO; [2]): 5.1
- drug sensitivity score (FIMM-PDC5): 6.6
- drug sensitivity score (FIMM-PDC1): 5.7
- drug sensitivity score (FIMM-PDC3): 7.4
- drug sensitivity score (Kuramochi; [1]): 5.45
- drug sensitivity score (Kuramochi; [2]): 4.9
- drug sensitivity score (FIMM-PDC7): 8.4
- drug sensitivity score (FIMM-PDC6): 7

SMILES: COc1cc(Nc2ncc3c(n2)-c2ccc(Cl)cc2C(c2c(F)cccc2OC)=NC3)ccc1C(=O)O [Alisertib]
- drug sensitivity score (JHOS2; [1]): 1.9
- drug sensitivity score (JHOS2; [2]): 0.9
- drug sensitivity score (FIMM-PDC4): 3.9
- drug sensitivity score (OVSAHO; [1]): 7
- drug sensitivity score (OVSAHO; [2]): 2.4
- drug sensitivity score (FIMM-PDC5): 7.2
- drug sensitivity score (FIMM-PDC1): 0.85
- drug sensitivity score (FIMM-PDC3): 6.2
- drug sensitivity score (Kuramochi; [1]): 6.25
- drug sensitivity score (Kuramochi; [2]): 4.2
- drug sensitivity score (FIMM-PDC7): < 0
- drug sensitivity score (FIMM-PDC6): < 0

SMILES: CN1CC[C@H](c2c(O)cc(O)c3c(=O)cc(-c4ccccc4Cl)oc23)[C@H](O)C1 [Alvocidib]
- drug sensitivity score (JHOS2; [1]): 14.4
- drug sensitivity score (JHOS2; [2]): 14.5
- drug sensitivity score (FIMM-PDC4): 17.4
- drug sensitivity score (OVSAHO; [1]): 16.7
- drug sensitivity score (OVSAHO; [2]): 14.7
- drug sensitivity score (FIMM-PDC5): 22.2
- drug sensitivity score (FIMM-PDC1): 16.6
- drug sensitivity score (FIMM-PDC3): 15.8
- drug sensitivity score (Kuramochi; [1]): 16.6
- drug sensitivity score (Kuramochi; [2]): 14.8
- drug sensitivity score (FIMM-PDC7): 20.4
- drug sensitivity score (FIMM-PDC6): 16.7

SMILES: CCN(CC)CCNC(=O)c1c(C)[nH]c(/C=C2\C(=O)Nc3ccc(-c4csc(-c5ccccc5)n4)cc32)c1C [Amcasertib]
- drug sensitivity score (JHOS2; [1]): 8.4
- drug sensitivity score (JHOS2; [2]): < 0
- drug sensitivity score (FIMM-PDC4): < 0
- drug sensitivity score (OVSAHO; [1]): 1.6
- drug sensitivity score (OVSAHO; [2]): 0.8
- drug sensitivity score (FIMM-PDC5): 0.3
- drug sensitivity score (FIMM-PDC1): < 0
- drug sensitivity score (FIMM-PDC3): 2.6
- drug sensitivity score (Kuramochi; [1]): 4.6
- drug sensitivity score (Kuramochi; [2]): < 0
- drug sensitivity score (FIMM-PDC7): 5.3
- drug sensitivity score (FIMM-PDC6): < 0

SMILES: COc1cc(NS(C)(=O)=O)ccc1Nc1c2ccccc2nc2ccccc12 [Amsacrine]
- drug sensitivity score (JHOS2; [1]): 3.3
- drug sensitivity score (JHOS2; [2]): 4.4
- drug sensitivity score (FIMM-PDC4): 5.1
- drug sensitivity score (OVSAHO; [1]): 5.3
- drug sensitivity score (OVSAHO; [2]): < 0
- drug sensitivity score (FIMM-PDC5): 5.8
- drug sensitivity score (FIMM-PDC1): 4.55
- drug sensitivity score (FIMM-PDC3): 6.3
- drug sensitivity score (Kuramochi; [1]): 1.25
- drug sensitivity score (Kuramochi; [2]): 1.4
- drug sensitivity score (FIMM-PDC7): 4
- drug sensitivity score (FIMM-PDC6): 3.9

SMILES: O=C1CN2Cc3c(ccc(Cl)c3Cl)N=C2N1 [Anagrelide]
- drug sensitivity score (JHOS2; [1]): < 0
- drug sensitivity score (JHOS2; [2]): 3.5
- drug sensitivity score (FIMM-PDC4): 0.8
- drug sensitivity score (OVSAHO; [1]): < 0
- drug sensitivity score (OVSAHO; [2]): < 0
- drug sensitivity score (FIMM-PDC5): < 0
- drug sensitivity score (FIMM-PDC1): < 0
- drug sensitivity score (FIMM-PDC3): 2.5
- drug sensitivity score (Kuramochi; [1]): < 0
- drug sensitivity score (Kuramochi; [2]): < 0
- drug sensitivity score (FIMM-PDC7): 12
- drug sensitivity score (FIMM-PDC6): 3.5

SMILES: CC(=O)OC[C@H]1O[C@@H]([S-])[C@H](OC(C)=O)[C@@H](OC(C)=O)[C@@H]1OC(C)=O.CCP(CC)CC.[Au+] [Auranofin]
- drug sensitivity score (JHOS2; [1]): 2.5
- drug sensitivity score (JHOS2; [2]): 0.7
- drug sensitivity score (FIMM-PDC4): 1.2
- drug sensitivity score (OVSAHO; [1]): 11
- drug sensitivity score (OVSAHO; [2]): 5.6
- drug sensitivity score (FIMM-PDC5): 1.1
- drug sensitivity score (FIMM-PDC1): 1.9
- drug sensitivity score (FIMM-PDC3): 5.5
- drug sensitivity score (Kuramochi; [1]): 6.75
- drug sensitivity score (Kuramochi; [2]): 7.5
- drug sensitivity score (FIMM-PDC7): 2.2
- drug sensitivity score (FIMM-PDC6): 4

SMILES: Nc1ncn([C@@H]2O[C@H](CO)[C@@H](O)[C@H]2O)c(=O)n1 [Azacitidine]
- drug sensitivity score (JHOS2; [1]): 2.2
- drug sensitivity score (JHOS2; [2]): 3.2
- drug sensitivity score (FIMM-PDC4): 2.8
- drug sensitivity score (OVSAHO; [1]): 3.8
- drug sensitivity score (OVSAHO; [2]): < 0
- drug sensitivity score (FIMM-PDC5): 6.4
- drug sensitivity score (FIMM-PDC1): 4.15
- drug sensitivity score (FIMM-PDC3): 5.2
- drug sensitivity score (Kuramochi; [1]): 1.05
- drug sensitivity score (Kuramochi; [2]): 0.6
- drug sensitivity score (FIMM-PDC7): 9.3
- drug sensitivity score (FIMM-PDC6): 7.7

SMILES: Cc1cc(-c2nc(-c3ccc(OC(F)(F)F)cc3)no2)nn1Cc1ccnc(N2CCN(C3CC3)CC2)c1 [BAY 87-2243]
- drug sensitivity score (JHOS2; [1]): 1.3
- drug sensitivity score (JHOS2; [2]): < 0
- drug sensitivity score (FIMM-PDC4): 1.5
- drug sensitivity score (OVSAHO; [1]): < 0
- drug sensitivity score (OVSAHO; [2]): 3.5
- drug sensitivity score (FIMM-PDC5): < 0
- drug sensitivity score (FIMM-PDC1): < 0
- drug sensitivity score (FIMM-PDC3): 0.9
- drug sensitivity score (Kuramochi; [1]): 5.7
- drug sensitivity score (Kuramochi; [2]): < 0
- drug sensitivity score (FIMM-PDC7): < 0
- drug sensitivity score (FIMM-PDC6): 8.3
